Assays:
GALAP Galium [1] = experiment: Preemergence herbicidal evaluation, GALAP; type: in vivo, Galium aparine; set-up: scale not given here; conditions: preemergence
Outline: (§1)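 First, seed is blended with potting soil and sown over roughly an inch of soil per cup. Next, the surface is sprayed with an aqueous acetone solution delivering about 0.013–0.800 kg/ha. Finally, cups are grown in the greenhouse and rated after 4–5 weeks.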

[2] = test system: IPOHE Morningglory, Ivyleaf; experiment: Preemergence herbicidal evaluation, IPOHE; type: in vivo, Ipomoea hederacea, (L.) Jacq.; set-up: scale not given here; conditions: preemergence
Outline: as §1

ABUTH Velvetleaf [3] = experiment: Postemergence herbicidal evaluation, ABUTH; type: in vivo, Abutilon theophrasti, Medic.; set-up: scale not given here; conditions: postemergence spray, rated about two-three weeks after treatment
Outline: (§2)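 Seedlings grown about two weeks were sprayed with compound in 80/20 acetone/water containing 1.0% methylated seed oil, at the equivalent of about 0.006 to 0.400 kg/ha, through a nozzle at 40 psi. Plants were kept in the greenhouse and rated visually about two to three weeks after treatment.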

[4] = test system: TRZAWR Wheat, Winter, cv Riband; experiment: Preemergence herbicidal evaluation, TRZAWR; type: in vivo, Triticum aestivum; set-up: scale not given here; conditions: preemergence
Outline: as §1

GALAP Galium [5] = experiment: Postemergence herbicidal evaluation, GALAP; type: in vivo, Galium aparine; set-up: scale not given here; conditions: postemergence spray, rated about two-three weeks after treatment
Outline: as §2

[6] = test system: IPOHE Morningglory, Ivyleaf; experiment: Postemergence herbicidal evaluation, IPOHE; type: in vivo, Ipomoea hederacea, (L.) Jacq.; set-up: scale not given here; conditions: postemergence spray, rated about two-three weeks after treatment
Outline: as §2

ABUTH Velvetleaf [7] = experiment: Preemergence herbicidal evaluation, ABUTH; type: in vivo, Abutilon theophrasti, Medic.; set-up: scale not given here; conditions: preemergence
Outline: as §1

SETVI Foxtail, Green [8] = experiment: Postemergence herbicidal evaluation, SETVI; type: in vivo, Setaria viridis, (L.) Beau; set-up: scale not given here; conditions: postemergence spray, rated about two-three weeks after treatment
Outline: as §2

ORYSAT Rice, Tebonnet [9] = experiment: Preemergence herbicidal evaluation, ORYSAT; type: in vivo, Oryza sativa, (L.); set-up: scale not given here; conditions: preemergence
Outline: as §1

AMBEL Ragweed, Common [10] = experiment: Postemergence herbicidal evaluation, AMBEL; type: in vivo, Ambrosia artemisifolia, L.; set-up: scale not given here; conditions: postemergence spray, rated about two-three weeks after treatment
Outline: as §2

[11] = test system: CHEAL Lambsquarters, Common; experiment: Postemergence herbicidal evaluation, CHEAL; type: in vivo, Chenopodium album, L.; set-up: scale not given here; conditions: postemergence spray, rated about two-three weeks after treatment
Outline: as §2

ECHOG Barnyardgrass [12] = experiment: Preemergence herbicidal evaluation, ECHOG; type: in vivo, Echinochloa crus-galli, (L.) Beau; set-up: scale not given here; conditions: preemergence
Outline: as §1

CASOB Sicklepod [13] = experiment: Preemergence herbicidal evaluation, CASOB; type: in vivo, Cassia obtusifolia, L.; set-up: scale not given here; conditions: preemergence
Outline: as §1

CASOB Sicklepod [14] = experiment: Postemergence herbicidal evaluation, CASOB; type: in vivo, Cassia obtusifolia, L.; set-up: scale not given here; conditions: postemergence spray, rated about two-three weeks after treatment
Outline: as §2

GLXMAW Soybean, Williams [15] = experiment: Preemergence herbicidal evaluation, GLXMAW; type: in vivo, Glycine max, (L.) Merr. cv Williams; set-up: scale not given here; conditions: preemergence
Outline: as §1

ZEAMX Corn, Field [16] = experiment: Preemergence herbicidal evaluation, ZEAMX; type: in vivo, Zea mays, L. (Sammel-Bezeichnung); set-up: scale not given here; conditions: preemergence
Outline: as §1

ECHOG Barnyardgrass [17] = experiment: Postemergence herbicidal evaluation, ECHOG; type: in vivo, Echinochloa crus-galli, (L.) Beau; set-up: scale not given here; conditions: postemergence spray, rated about two-three weeks after treatment
Outline: as §2

AMBEL Ragweed, Common [18] = experiment: Preemergence herbicidal evaluation, AMBEL; type: in vivo, Ambrosia artemisifolia, L.; set-up: scale not given here; conditions: preemergence
Outline: as §1

ZEAMX Corn, Field [19] = experiment: Postemergence herbicidal evaluation, ZEAMX; type: in vivo, Zea mays, L. (Sammel-Bezeichnung); set-up: scale not given here; conditions: postemergence spray, rated about two-three weeks after treatment
Outline: as §2

SETVI Foxtail, Green [20] = experiment: Preemergence herbicidal evaluation, SETVI; type: in vivo, Setaria viridis, (L.) Beau; set-up: scale not given here; conditions: preemergence
Outline: as §1

[21] = test system: CHEAL Lambsquarters, Common; experiment: Preemergence herbicidal evaluation, CHEAL; type: in vivo, Chenopodium album, L.; set-up: scale not given here; conditions: preemergence
Outline: as §1

[22] = test system: TRZAWR Wheat, Winter, cv Riband; experiment: Postemergence herbicidal evaluation, TRZAWR; type: in vivo, Triticum aestivum; set-up: scale not given here; conditions: postemergence spray, rated about two-three weeks after treatment
Outline: as §2

ORYSAT Rice, Tebonnet [23] = experiment: Postemergence herbicidal evaluation, ORYSAT; type: in vivo, Oryza sativa, (L.); set-up: scale not given here; conditions: postemergence spray, rated about two-three weeks after treatment
Outline: as §2

GLXMAW Soybean, Williams [24] = experiment: Postemergence herbicidal evaluation, GLXMAW; type: in vivo, Glycine max, (L.) Merr. cv Williams; set-up: scale not given here; conditions: postemergence spray, rated about two-three weeks after treatment
Outline: as §2

CCc1cccc(-n2nnc3cc(F)c(-n4c(=O)cc(C(F)(F)F)n(C)c4=O)cc32)c1 [Example 29, 3-[1-(3-ethylphenyl)-5-fluoro-1H-1,2,3-benzotriazol-6-yl]-1-methyl-6-(trifluoromethyl)-2,4(1H,3H)-pyrimidinedione]
GALAP herbicidal rating (GALAP Galium [1]; rate 0.016 kg/ha): 0.0 | GALAP herbicidal rating (GALAP Galium [1]; rate 0.032 kg/ha): 0.0 | GALAP herbicidal rating (GALAP Galium [1]; rate 0.062 kg/ha): 1.0 | GALAP herbicidal rating (GALAP Galium [1]; rate 0.125 kg/ha): 8.0 | IPOHE herbicidal rating ([2]; rate 0.016 kg/ha): 0.0 | IPOHE herbicidal rating ([2]; rate 0.032 kg/ha): 3.0 | IPOHE herbicidal rating ([2]; rate 0.062 kg/ha): 6.0 | IPOHE herbicidal rating ([2]; rate 0.125 kg/ha): 7.0 | Postemergence herbicidal rating ABUTH (ABUTH Velvetleaf [3]; 0.008 kg/ha): 9.0 | Postemergence herbicidal rating ABUTH (ABUTH Velvetleaf [3]; 0.016 kg/ha): 9.0 | Postemergence herbicidal rating ABUTH (ABUTH Velvetleaf [3]; 0.032 kg/ha): 9.0 | Postemergence herbicidal rating ABUTH (ABUTH Velvetleaf [3]; 0.062 kg/ha): 9.0 | TRZAWR herbicidal rating ([4]; rate 0.016 kg/ha): 1.0 | TRZAWR herbicidal rating ([4]; rate 0.032 kg/ha): 1.0 | TRZAWR herbicidal rating ([4]; rate 0.062 kg/ha): 2.0 | TRZAWR herbicidal rating ([4]; rate 0.125 kg/ha): 2.0 | Postemergence herbicidal rating GALAP (GALAP Galium [5]; 0.008 kg/ha): 0.0 | Postemergence herbicidal rating GALAP (GALAP Galium [5]; 0.016 kg/ha): 1.0 | Postemergence herbicidal rating GALAP (GALAP Galium [5]; 0.032 kg/ha): 1.0 | Postemergence herbicidal rating GALAP (GALAP Galium [5]; 0.062 kg/ha): 3.0 | Postemergence herbicidal rating IPOHE ([6]; 0.008 kg/ha): 9.0 | Postemergence herbicidal rating IPOHE ([6]; 0.016 kg/ha): 9.0 | Postemergence herbicidal rating IPOHE ([6]; 0.032 kg/ha): 9.0 | Postemergence herbicidal rating IPOHE ([6]; 0.062 kg/ha): 9.0 | ABUTH herbicidal rating (ABUTH Velvetleaf [7]; rate 0.016 kg/ha): 6.0 | ABUTH herbicidal rating (ABUTH Velvetleaf [7]; rate 0.032 kg/ha): 9.0 | ABUTH herbicidal rating (ABUTH Velvetleaf [7]; rate 0.062 kg/ha): 9.0 | ABUTH herbicidal rating (ABUTH Velvetleaf [7]; rate 0.125 kg/ha): 9.0 | melting point: 52 to 65 °C | Postemergence herbicidal rating SETVI (SETVI Foxtail, Green [8]; 0.008 kg/ha): 1.0 | Postemergence herbicidal rating SETVI (SETVI Foxtail, Green [8]; 0.016 kg/ha): 7.0 | Postemergence herbicidal rating SETVI (SETVI Foxtail, Green [8]; 0.032 kg/ha): 9.0 | Postemergence herbicidal rating SETVI (SETVI Foxtail, Green [8]; 0.062 kg/ha): 9.0 | ORYSAT herbicidal rating (ORYSAT Rice, Tebonnet [9]; rate 0.016 kg/ha): 0.0 | ORYSAT herbicidal rating (ORYSAT Rice, Tebonnet [9]; rate 0.032 kg/ha): 1.0 | ORYSAT herbicidal rating (ORYSAT Rice, Tebonnet [9]; rate 0.062 kg/ha): 3.0 | ORYSAT herbicidal rating (ORYSAT Rice, Tebonnet [9]; rate 0.125 kg/ha): 4.0 | Postemergence herbicidal rating AMBEL (AMBEL Ragweed, Common [10]; 0.008 kg/ha): 7.0 | Postemergence herbicidal rating AMBEL (AMBEL Ragweed, Common [10]; 0.016 kg/ha): 7.0 | Postemergence herbicidal rating AMBEL (AMBEL Ragweed, Common [10]; 0.032 kg/ha): 6.0 | Postemergence herbicidal rating AMBEL (AMBEL Ragweed, Common [10]; 0.062 kg/ha): 9.0 | Postemergence herbicidal rating CHEAL ([11]; 0.008 kg/ha): 9.0 | Postemergence herbicidal rating CHEAL ([11]; 0.016 kg/ha): 9.0 | Postemergence herbicidal rating CHEAL ([11]; 0.032 kg/ha): 9.0 | Postemergence herbicidal rating CHEAL ([11]; 0.062 kg/ha): 9.0 | ECHCG herbicidal rating (ECHOG Barnyardgrass [12]; rate 0.016 kg/ha): 2.0 | ECHCG herbicidal rating (ECHOG Barnyardgrass [12]; rate 0.032 kg/ha): 4.0 | ECHCG herbicidal rating (ECHOG Barnyardgrass [12]; rate 0.062 kg/ha): 7.0 | ECHCG herbicidal rating (ECHOG Barnyardgrass [12]; rate 0.125 kg/ha): 7.0 | CASOB herbicidal rating (CASOB Sicklepod [13]; rate 0.016 kg/ha): 1.0 | CASOB herbicidal rating (CASOB Sicklepod [13]; rate 0.125 kg/ha): 1.0 | Postemergence herbicidal rating CASOB (CASOB Sicklepod [14]; 0.008 kg/ha): 0.0 | Postemergence herbicidal rating CASOB (CASOB Sicklepod [14]; 0.016 kg/ha): 2.0 | Postemergence herbicidal rating CASOB (CASOB Sicklepod [14]; 0.032 kg/ha): 2.0 | Postemergence herbicidal rating CASOB (CASOB Sicklepod [14]; 0.062 kg/ha): 3.0 | GLXMAW herbicidal rating (GLXMAW Soybean, Williams [15]; rate 0.016 kg/ha): 0.0 | GLXMAW herbicidal rating (GLXMAW Soybean, Williams [15]; rate 0.032 kg/ha): 1.0 | GLXMAW herbicidal rating (GLXMAW Soybean, Williams [15]; rate 0.062 kg/ha): 4.0 | GLXMAW herbicidal rating (GLXMAW Soybean, Williams [15]; rate 0.125 kg/ha): 5.0 | ZEAMX herbicidal rating (ZEAMX Corn, Field [16]; rate 0.016 kg/ha): 0.0 | ZEAMX herbicidal rating (ZEAMX Corn, Field [16]; rate 0.032 kg/ha): 2.0 | ZEAMX herbicidal rating (ZEAMX Corn, Field [16]; rate 0.062 kg/ha): 4.0 | ZEAMX herbicidal rating (ZEAMX Corn, Field [16]; rate 0.125 kg/ha): 5.0 | Postemergence herbicidal rating ECHCG (ECHOG Barnyardgrass [17]; 0.008 kg/ha): 1.0 | Postemergence herbicidal rating ECHCG (ECHOG Barnyardgrass [17]; 0.016 kg/ha): 1.0 | Postemergence herbicidal rating ECHCG (ECHOG Barnyardgrass [17]; 0.032 kg/ha): 1.0 | Postemergence herbicidal rating ECHCG (ECHOG Barnyardgrass [17]; 0.062 kg/ha): 1.0 | AMBEL herbicidal rating (AMBEL Ragweed, Common [18]; rate 0.016 kg/ha): 0.0 | AMBEL herbicidal rating (AMBEL Ragweed, Common [18]; rate 0.032 kg/ha): 0.0 | AMBEL herbicidal rating (AMBEL Ragweed, Common [18]; rate 0.062 kg/ha): 3.0 | AMBEL herbicidal rating (AMBEL Ragweed, Common [18]; rate 0.125 kg/ha): 7.0 | Postemergence herbicidal rating ZEAMX (ZEAMX Corn, Field [19]; 0.008 kg/ha): 3.5 | Postemergence herbicidal rating ZEAMX (ZEAMX Corn, Field [19]; 0.016 kg/ha): 5.0 | Postemergence herbicidal rating ZEAMX (ZEAMX Corn, Field [19]; 0.032 kg/ha): 5.0 | Postemergence herbicidal rating ZEAMX (ZEAMX Corn, Field [19]; 0.062 kg/ha): 5.0 | SETVI herbicidal rating (SETVI Foxtail, Green [20]; rate 0.016 kg/ha): 6.0 | SETVI herbicidal rating (SETVI Foxtail, Green [20]; rate 0.032 kg/ha): 9.0 | SETVI herbicidal rating (SETVI Foxtail, Green [20]; rate 0.062 kg/ha): 9.0 | SETVI herbicidal rating (SETVI Foxtail, Green [20]; rate 0.125 kg/ha): 9.0 | CHEAL herbicidal rating ([21]; rate 0.016 kg/ha): 9.0 | CHEAL herbicidal rating ([21]; rate 0.032 kg/ha): 9.0 | CHEAL herbicidal rating ([21]; rate 0.062 kg/ha): 9.0 | CHEAL herbicidal rating ([21]; rate 0.125 kg/ha): 9.0 | Postemergence herbicidal rating TRZAWR ([22]; 0.008 kg/ha): 2.0 | Postemergence herbicidal rating TRZAWR ([22]; 0.016 kg/ha): 2.0 | Postemergence herbicidal rating TRZAWR ([22]; 0.032 kg/ha): 2.5 | Postemergence herbicidal rating TRZAWR ([22]; 0.062 kg/ha): 3.0 | Postemergence herbicidal rating ORYSAT (ORYSAT Rice, Tebonnet [23]; 0.008 kg/ha): 2.0 | Postemergence herbicidal rating ORYSAT (ORYSAT Rice, Tebonnet [23]; 0.016 kg/ha): 2.0 | Postemergence herbicidal rating ORYSAT (ORYSAT Rice, Tebonnet [23]; 0.032 kg/ha): 2.0 | Postemergence herbicidal rating ORYSAT (ORYSAT Rice, Tebonnet [23]; 0.062 kg/ha): 3.0 | Postemergence herbicidal rating GLXMAW (GLXMAW Soybean, Williams [24]; 0.008 kg/ha): 5.0 | Postemergence herbicidal rating GLXMAW (GLXMAW Soybean, Williams [24]; 0.016 kg/ha): 6.5 | Postemergence herbicidal rating GLXMAW (GLXMAW Soybean, Williams [24]; 0.032 kg/ha): 8.0 | Postemergence herbicidal rating GLXMAW (GLXMAW Soybean, Williams [24]; 0.062 kg/ha): 8.0
